From US9737075B2, “Synergistic benzoxaborole-containing anti-fungicidal composition” (The Penn State Research Foundation, priority 2015, dated 2017)
Converted amounts (≈) assume the structure as drawn. Where two headings read alike, the source gives them in different places.

Legend:
Assay type in all cases: cell-based
[1] = system: Mycosphaerella zeae-maydis; assay: Broth microdilution MIC of individual antifungals; details: Didymella maydis, individual antifungal, 25% PDB, about 25° C., 72 hours, range over N independent triplicate studies
[2] = system: Alternaria solani; assay: Broth microdilution MIC of individual antifungals; details: individual antifungal, 25% PDB, about 25° C., 72 hours, range over N independent triplicate studies, read-out: Independent MIC
[3] = system: Aureobasidium pullulans; assay: Broth microdilution MIC of individual antifungals; details: individual antifungal, 25% PDB, about 25° C., 72 hours, range over N independent triplicate studies, read-out: Independent MIC
[4] = system: Aspergillus flavus; assay: Broth microdilution MIC of individual antifungals; details: read-out: Independent MIC
[5] = system: Aspergillus fumigatus; assay: Broth microdilution MIC of individual antifungals; details: individual antifungal, 25% PDB, about 25° C., 72 hours, range over N independent triplicate studies, read-out: Independent MIC
[6] = system: Aspergillus niger; assay: Broth microdilution MIC of individual antifungals; details: read-out: Independent MIC
[7] = system: Sclerotinia homoeocarpa; assay: Broth microdilution MIC of individual antifungals; details: Clarireedia homoeocarpa; Sclerotinia homoeocarpa; individual antifungal, 25% PDB, about 25° C., 72 hours; range over N independent triplicate studies; read-out: Independent MIC
[8] = system: Botrytis cinerea 10-1728; assay: Broth microdilution MIC of individual antifungals; details: 101728; Botrytis cinerea 10-1728; individual antifungal, 25% PDB, about 25° C., 72 hours; range over N independent triplicate studies; read-out: Independent MIC
[9] = system: Botrytis cinerea B17; assay: Broth microdilution MIC of individual antifungals; details: Botrytis cinerea B17; individual antifungal, 25% PDB, about 25° C., 72 hours; range over N independent triplicate studies; read-out: Independent MIC
[10] = system: Fusarium verticillioides; assay: Broth microdilution MIC of individual antifungals; details: individual antifungal, 25% PDB, about 25° C., 72 hours, range over N independent triplicate studies, read-out: Independent MIC
[11] = system: Fusarium solani f. sp. pisi (MP VI); assay: Broth microdilution MIC of individual antifungals; details: read-out: Independent MIC
[12] = system: Fusarium oxysporum ST33; assay: Broth microdilution MIC of individual antifungals; details: individual antifungal, 25% PDB, about 25° C., 72 hours, range over N independent triplicate studies
[13] = system: Fusarium oxysporum f. sp. lycopersici; assay: Broth microdilution MIC of individual antifungals; details: individual antifungal, 25% PDB, about 25° C., 72 hours, range over N independent triplicate studies
[14] = system: Stachybotrys chartarum; assay: Broth microdilution MIC of individual antifungals; details: individual antifungal, 25% PDB, about 25° C., 72 hours, range over N independent triplicate studies, read-out: Independent MIC
[15] = system: Rhizopus sp.; assay: Broth microdilution MIC of individual antifungals; details: read-out: Independent MIC
[16] = system: Mucor sp.; assay: Broth microdilution MIC of individual antifungals; details: individual antifungal, 25% PDB, about 25° C., 72 hours, range over N independent triplicate studies
[17] = system: two dozen different fungal organisms; assay: Broth microdilution MIC, summary over the organisms examined
Experimental: All antifungal susceptibility assays were conducted in triplicate and N independent times. Thus, the inhibition studies were conducted a total of 3·N times. […] Thus, each synergy assay (combination of two antifungals) was conducted in conjunction with independent MIC determination. FICI values were calculated by comparing the inhibition activity of the combination (benzoxaborole+another antifungal) against the efficacy of the individual antifungal within the same experiment (using the same experimental conditions).
The studies were performed in flat bottom, 96-well microtiter plates (Greiner Bio-One).
Plates sealed with clear polyester film (VWR) were incubated at a temperature of about 25° C. The progress of fungal growth was monitored at 48 hours, 72 hours, 7 days, and 15 days. […] In order to establish appropriate comparison between the different fungi, the FICI (thus, the MICs used) determination was done at 72 hours for all cases discussed herein.
The MICs of the individual antifungals (MICBoron and MICA) and in combination (MICBA) were determined after 72 hours of incubation. […] MICA is defined as the MIC value of every other individual non-benzoxaborole-based antifungal. MICBA is defined as the MIC value when the benzoxaborole antifungal is combined with another non-benzoxaborole antifungal. […] The combination studies were performed in triplicate in flat bottom 96-well microtiter plates with a final media volume of 0.2 mL/well.

[18] = system: Candida albicans; assay: Broth microdilution MIC of individual antifungals; details: read-out: Independent MIC
[19] = system: Fusarium graminearum; assay: microbe, parasite or virus in culture; details: Fusarium graminearum, 72 h, read-out: Independent MIC
[20] = system: Pythium aphanodermatum; assay: Broth microdilution MIC of individual antifungals; details: individual antifungal, 25% PDB, about 25° C., 72 hours, range over N independent triplicate studies
[21] = system: Magnaporthe grisea; assay: microbe, parasite or virus in culture; details: Pyricularia oryzae, 72 h, read-out: Independent MIC
[22] = system: Phytophthora pini; assay: Broth microdilution MIC of individual antifungals; details: individual antifungal, 25% PDB, about 25° C., 72 hours, range over N independent triplicate studies
[23] = system: Rhizoctonia solani; assay: Broth microdilution MIC of individual antifungals; details: read-out: Independent MIC
[24] = system: Penicillium chrysogenum; assay: Broth microdilution MIC of individual antifungals; details: read-out: Independent MIC
[25] = system: Colletotrichum orbiculare; assay: Broth microdilution MIC of individual antifungals; details: read-out: Independent MIC
[26] = individual antifungal, 25% PDB, about 25° C., 72 hours, range over N independent triplicate studies
[27] = Fusarium solani f. sp. pisi (MP VI), individual antifungal, 25% PDB, about 25° C., 72 hours, range over N independent triplicate studies
[28] = Rhizopus, 72 h, Rhizopus sp., individual antifungal, 25% PDB, about 25° C., 72 hours, range over N independent triplicate studies
[29] = by itself, against the organisms examined (Table 1), regularly
[30] = against many species tested here

SMILES	MIC [1]	MIC [2]	MIC [3]	MIC [4, 26]	MIC [5]	MIC [6, 26]	MIC [7]	MIC [8]	MIC [9]	MIC [10]	MIC [11, 27]	MIC [12]	MIC [13]	MIC [14]	MIC [15, 28]	MIC [16]	MIC [19]	MIC [21]	MIC [22]	MIC [25, 26]	other results
Cc1ccc2c(c1)COB2O [B1, 5-Methyl-1,3-dihydro-2,1-benzoxaborol-1-ol]	16 µg/mL	1 µg/mL	1 µg/mL	2 µg/mL	0.25 µg/mL	2 µg/mL	1 µg/mL	2 µg/mL	2 µg/mL	0.5 µg/mL	2 µg/mL	1 µg/mL	1 µg/mL	0.5 µg/mL	16 µg/mL	1 µg/mL	–	–	–	–	MIC [17, 29]: ≤ 4 µg/mL
OB1OCc2cc(Cl)ccc21 [B18, 5-chloro-1,3-dihydro-2,1-benzoxaborol-1-ol]	4 to 8 µg/mL	0.5 µg/mL	0.125 µg/mL	0.5 to 1 µg/mL	0.125 to 0.25 µg/mL	0.5 to 2 µg/mL	1 to 4 µg/mL	0.5 to 2 µg/mL	0.5 µg/mL	0.25 to 0.5 µg/mL	0.5 µg/mL	0.5 µg/mL	0.25 µg/mL	0.25 to 1 µg/mL	0.5 to 2 µg/mL	0.5 to 1 µg/mL	1 µg/mL (≈ 5.94 µM)	0.39 to 1.56 µg/mL (≈ 2.32 to 9.26 µM)	0.125 µg/mL	0.78 µg/mL	MIC [18, 26]: 0.5 to 1 µg/mL; MIC [20]: 0.25 to 2 µg/mL; MIC [23, 26]: 1.56 to 8 µg/mL; MIC [24, 26]: 0.19 to 0.38 µg/mL; MIC [17, 29]: ≤ 4 µg/mL
OB1OCc2cc(F)ccc21 [B90, 5-Fluoro-1,3-dihydro-2,1-benzoxaborol-1-ol]	1 to 8 µg/mL	0.25 to 0.5 µg/mL	0.25 to 0.5 µg/mL	0.5 to 1 µg/mL	0.063 to 0.125 µg/mL	0.25 to 1 µg/mL	0.25 to 1 µg/mL	0.25 to 0.5 µg/mL	0.5 to 2 µg/mL	0.25 to 0.4 µg/mL	0.5 to 1 µg/mL	0.25 to 0.5 µg/mL	0.25 to 0.5 µg/mL	0.25 to 0.5 µg/mL	1 to 2 µg/mL	0.25 µg/mL	0.5 to 2 µg/mL (≈ 3.29 to 13.2 µM)	1.25 to 2 µg/mL (≈ 8.23 to 13.2 µM)	–	0.78 to 1.56 µg/mL	MIC [18, 26]: 0.5 µg/mL; MIC [20]: 2 to 4 µg/mL; MIC [23, 26]: 1.56 to 8 µg/mL; MIC [24, 26]: 0.19 to 0.39 µg/mL; MIC [17, 29]: ≤ 4 µg/mL
O=C1C2CC=CCC2C(=O)N1SC(Cl)(Cl)Cl (stereo not drawn) [Captan, captan]	1 to 1.56 µg/mL	1.5 to 3.12 µg/mL	0.375 to 0.78 µg/mL	12.5 to 25 µg/mL	6.25 to 12.5 µg/mL	12.5 to 16 µg/mL	2 to 4 µg/mL	0.94 to 1.56 µg/mL	1.88 to 4 µg/mL	1 to 2 µg/mL	3 to 3.12 µg/mL	1 to 2 µg/mL	1.56 to 4 µg/mL	0.39 to 0.5 µg/mL	12.5 to 40 µg/mL	3.12 to 12.5 µg/mL	0.78 to 0.8 µg/mL (≈ 2.59 to 2.66 µM)	0.19 to 0.2 µg/mL (≈ 0.632 to 0.665 µM)	0.39 µg/mL	0.39 to 0.78 µg/mL	MIC [20]: 28 µg/mL; MIC [24, 26]: 0.75 to 0.78 µg/mL; MIC [17, 30]: > 25 µg/mL
N#Cc1c(Cl)c(Cl)c(Cl)c(C#N)c1Cl [Chlorothalonil, chlorothalonil]	0.78 to 1 µg/mL	1 to 1.56 µg/mL	–	0.1 to 0.2 µg/mL	0.1 to 0.2 µg/mL	0.39 to 1 µg/mL	0.39 to 0.78 µg/mL	0.2 to 0.5 µg/mL	–	0.75 to 0.78 µg/mL	12.5 to 25 µg/mL	–	–	–	0.78 µg/mL	0.78 to 1 µg/mL	0.78 to 1.56 µg/mL (≈ 2.93 to 5.87 µM)	–	–	0.39 µg/mL	MIC [18, 26]: 0.78 µg/mL; MIC [23, 26]: 1.56 µg/mL; MIC [24, 26]: 0.1 µg/mL; MIC [17, 30]: > 25 µg/mL
CNC(=S)S [Metam Sodium, Metam sodium]	6 to 6.25 µg/mL	12.5 to 15 µg/mL	–	–	25 µg/mL	–	6.25 µg/mL	50 to 200 µg/mL	–	25 µg/mL	–	–	–	–	–	50 µg/mL	12.5 to 25 µg/mL	–	50 µg/mL	–	MIC ([4]; 72 h): 25 µg/mL; MIC ([6]; 72 h): 50 µg/mL; MIC ([18]; 72 h): 25 µg/mL; MIC ([11]; Fusarium solani, 72 h): 25 to 50 µg/mL; MIC ([15]; Rhizopus, 72 h): 100 µg/mL; MIC [23, 26]: 25 to 50 µg/mL; MIC ([24]; 72 h): 50 µg/mL; MIC ([25]; 72 h): 12.5 to 25 µg/mL; MIC [17, 30]: > 25 µg/mL
S=C(S)NCCNC(=S)S [Zineb, zineb]	1.56 to 2 µg/mL	6.25 to 12.5 µg/mL	–	–	0.78 to 1.56 µg/mL	–	6.25 to 12.5 µg/mL	3 to 3.12 µg/mL	–	3.12 to 6.25 µg/mL	6.25 to 12.5 µg/mL	–	–	–	–	–	1.56 µg/mL (≈ 7.34 µM)	0.78 to 1.56 µg/mL (≈ 3.67 to 7.34 µM)	25 µg/mL	3.13 to 6.25 µg/mL	MIC ([4]; 72 h): 1 to 1.56 µg/mL; MIC ([18]; 72 h): 3.12 µg/mL; MIC ([15]; Rhizopus sp., individual antifungal, 25% PDB, about 25° C., 72 hours, range over N independent triplicate studies): 12.5 µg/mL; MIC ([23]; 72 h): 3.12 µg/mL; MIC ([24]; 72 h): 1.56 to 6.25 µg/mL; MIC [17, 30]: > 25 µg/mL
